From patent US10640545B2 (THE GOVERNORS OF THE UNIVERSITY OF ALBERTA, priority 2017, dated 2020)
Where a SMILES comes first, the peptide text is derived from it. [ ]: non-standard residue; d: D form. Phe(4-Br) = N[C@@H](Cc1ccc(Br)cc1)C(=O)O; NMeL = CN[C@@H](CC(C)C)C(=O)O; Nle = CCCC[C@H](N)C(=O)O; Aib = CC(C)(N)C(=O)O

How the values were obtained:
[1] = target: Recombinant Human Neprilysin (Homo sapiens, UniProt P08473); test: Neprilysin qualitative cleavage assay (MALDI-TOF); settings: rhNEP 2 ng/μL, 37° C., first degradation products by MALDI-TOF
Recombinant Human Neprilysin, sequence (P08473 whole entry): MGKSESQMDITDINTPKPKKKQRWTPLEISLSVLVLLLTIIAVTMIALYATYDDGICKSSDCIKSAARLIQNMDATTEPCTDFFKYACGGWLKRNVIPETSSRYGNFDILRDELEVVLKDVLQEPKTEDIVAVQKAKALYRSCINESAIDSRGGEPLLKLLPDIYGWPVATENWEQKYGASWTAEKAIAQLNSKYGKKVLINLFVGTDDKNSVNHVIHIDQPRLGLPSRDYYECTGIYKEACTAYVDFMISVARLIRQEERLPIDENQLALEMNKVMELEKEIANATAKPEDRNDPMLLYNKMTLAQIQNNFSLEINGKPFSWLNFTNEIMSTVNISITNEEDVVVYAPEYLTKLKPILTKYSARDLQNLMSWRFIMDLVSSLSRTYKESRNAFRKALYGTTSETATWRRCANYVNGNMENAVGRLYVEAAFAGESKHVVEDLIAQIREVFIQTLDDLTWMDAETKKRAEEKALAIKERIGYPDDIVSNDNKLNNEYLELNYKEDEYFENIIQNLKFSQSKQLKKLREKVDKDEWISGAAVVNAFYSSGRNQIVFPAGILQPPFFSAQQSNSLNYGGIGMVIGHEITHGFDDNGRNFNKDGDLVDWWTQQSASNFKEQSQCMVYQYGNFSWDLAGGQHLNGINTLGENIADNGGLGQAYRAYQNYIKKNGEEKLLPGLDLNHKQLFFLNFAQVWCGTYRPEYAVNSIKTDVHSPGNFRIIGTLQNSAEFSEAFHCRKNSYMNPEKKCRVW
Method: Native apelin-17 (2) and apelin peptides 5, 54, 56, 57, 58 and 59 were dissolved in Milli-Q water (1 mM). Recombinant Human Neprilysin (rhNEP, Sino Biological) was reconstituted in Tris buffer (100 mM Tris, 100 mM NaCl, 10 mM ZnCl2, pH 7.5). To initiate the assays, rhNEP was diluted in Tris buffer to a 2 ng/μL final concentration, and pre-incubated at 37° C. for 10 minutes prior to the addition of 5 μL of apelin peptide (1 mM). Aliquots (1 μL) were taken at 1, 2, 4, 6, 12, 24, 36, and 48 hours and analyzed with MALDI-TOF mass spectrometry to qualitatively determine the time point at which degradation products could be observed.

[2] = target: T1, wild-type rat apelin receptor (Rattus norvegicus, UniProt Q9JHG3); test: Radioligand binding, displacement of [125I]-pyr-1-apelin-13 on CHO cell membranes
T1 construct: expressed in transfected cells
T1 sequence (Q9JHG3 1-377): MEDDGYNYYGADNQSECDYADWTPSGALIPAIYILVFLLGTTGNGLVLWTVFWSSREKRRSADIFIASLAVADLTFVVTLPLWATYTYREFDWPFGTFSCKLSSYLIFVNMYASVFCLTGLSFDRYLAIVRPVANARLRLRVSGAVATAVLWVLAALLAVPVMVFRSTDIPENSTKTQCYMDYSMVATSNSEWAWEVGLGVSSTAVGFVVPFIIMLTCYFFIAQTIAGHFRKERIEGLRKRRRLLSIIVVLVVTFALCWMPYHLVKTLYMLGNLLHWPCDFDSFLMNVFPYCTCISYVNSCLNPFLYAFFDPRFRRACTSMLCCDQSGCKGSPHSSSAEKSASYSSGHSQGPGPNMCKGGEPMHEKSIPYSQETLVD
Summary of the method: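 Membranes (1 μg) from CHO cells stably expressing rat apelin receptor-EGFP incubated 3 h at 20 °C with 0.2 nM [125I]-pyr-1-apelin-13 and varying peptide concentrations in 50 mM HEPES, 5 mM MgCl2, 1% BSA, pH 7.5. Bound radioactivity measured by filtration and gamma counting.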

KLKB1 [3] = target: T2, KLKB1 (Homo sapiens, UniProt P03952); test: Kinetic parameters for KLKB1 cleavage; assay type: biochemical; design: purchased Novoprotein; settings: for Km / kcat: enzyme KLKB1
T2 sequence (P03952 20-638): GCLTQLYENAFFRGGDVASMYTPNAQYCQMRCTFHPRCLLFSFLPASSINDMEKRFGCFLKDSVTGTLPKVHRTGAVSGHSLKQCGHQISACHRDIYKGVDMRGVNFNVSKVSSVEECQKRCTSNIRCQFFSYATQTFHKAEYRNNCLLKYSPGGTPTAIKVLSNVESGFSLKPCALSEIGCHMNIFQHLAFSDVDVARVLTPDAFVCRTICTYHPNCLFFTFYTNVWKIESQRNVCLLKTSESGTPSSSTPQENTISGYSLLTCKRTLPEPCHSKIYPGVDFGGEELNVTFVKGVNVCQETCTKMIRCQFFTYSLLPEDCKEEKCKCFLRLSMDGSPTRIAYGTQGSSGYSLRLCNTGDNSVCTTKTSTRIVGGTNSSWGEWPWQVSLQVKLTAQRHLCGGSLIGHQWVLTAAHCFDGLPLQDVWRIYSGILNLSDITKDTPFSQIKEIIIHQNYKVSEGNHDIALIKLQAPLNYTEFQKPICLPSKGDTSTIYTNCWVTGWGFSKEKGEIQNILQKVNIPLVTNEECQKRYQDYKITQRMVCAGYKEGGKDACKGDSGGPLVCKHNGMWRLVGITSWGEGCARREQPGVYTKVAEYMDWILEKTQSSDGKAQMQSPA

[4] = In vitro peptide stability in human blood plasma (RP-HPLC)
KLKB1 [5] = target: T2, KLKB1; test: In vitro KLKB1 stability (half-life); assay type: in vitro ADME; design: purchased Novoprotein; settings: rhKLKB1, 37° C.
isolated rat hearts = test: Langendorff isolated heart, ischemia-reperfusion injury; settings: ex vivo heart, 30 min ischemia
Method: The ex vivo heart was assessed for a variety of parameters (heart rate (HR); left ventricle developed pressure (LVDP); maximum derivative of change in systolic pressure over time (max dP/dt); minimum derivative of change in diastolic pressure over time (min dP/dt); and rate-pressure product (RPP)) indicative of general heart function and performance (FIG. 11).
Langendorff heart perfusion and ischemia-reperfusion injury were prepared and cardiac function was measured. Mice were heparinized and anaesthetized with 1.5-2% isoflurane inhalation. The heart was excised, mounted on a Langendorff system, and perfused at a consistent pressure of 80 mmHg with modified Krebs-Henseleit solution (116 mM NaCl, 3.2 mM KCl, 2.0 mM CaCl2), 1.2 mM MgSO4, 25 mM NaHCO3, 1.2 mM KH2PO4, 11 mM glucose, 0.5 mM EDTA and 2 mM pyruvate), which was kept at 37° C. and continuously oxygenated with 95% O2 and 5% CO2 which maintained the perfusion buffer at pH 7.4. After stabilization and 10 min baseline recording, global ischemia was induced for 30 min followed by 40 min of reperfusion. Apelin 17 (2) or apelin peptides (11, 17, 18, or 19) were given at the start of reperfusion for 10 min at a concentration of 1 pM. Left ventricular functions were obtained continuously by PowerLab system (ADInstruments, Australia). Data was reported as mean value of every 5 min. Left ventricular functions were reported as: Left Ventricular Developed Pressure (LVDP); Heart rate (HR); maximum derivative of change in systolic pressure over time (max dP/dt); minimum derivative of change in diastolic pressure over time (min dP/dt); and Rate Pressure Product (RPP).

For `CSCC[C@H](NC(=O)[C@@H]1CCCN1C(=O)CNC(=O)[C@H](CCCCN)NC(=O)[C@H](Cc1cnc[nH]1)NC(=O)[C@H](CO)NC(=O)[C@H](CC(C)C)NC(=O)[C@H](CCCNC(=N)N)NC(=O)[C@@H]1CCCN1C(=O)[C@H](CCCNC(=N)N)NC(=O)[C@H](CCC(N)=O)NC(=O)[C@H](CCCNC(=N)N)NC(=O)[C@H](CCCNC(=N)N)NC(=O)[C@H](Cc1ccccc1)NC(=O)[C@@H](N)CCCCN)C(=O)N1CCC[C@H]1C(=O)N[C@@H](Cc1ccccc1)C(=O)O` [Peptide 2, reference compound], which “Degradation Onset Timepoint with NEP” value [1] is on record?
Its value is under 30 min.

What about the Ki ([2]; displacement of [125I]-pyr-1-apelin-13 (0.2 nM), CHO membranes, rat apelin receptor-EGFP, means ± SE, read-out: Affinity Ki) of the same compound?
Its Ki is 0.05 nM.

What about the Km (KLKB1 [3]) of the same compound?
Its Km is 97 ± 21 µM.

What about the “kcat” value (KLKB1 [3]) of the same compound?
Its value is 13.7 ± 1.3 s⁻¹.

And the remaining at 0.5 h, 80 µM ([4]; human blood plasma)?
Its remaining at 0.5 h, 80 µM is 51 ± 17%.

What about the remaining at 1 h, 80 µM ([4]; human blood plasma) of the same compound?
The remaining at 1 h, 80 µM was 39 ± 7%.

What about the “t1/2 (hplasma, h)” value ([4]; plasma) of the same compound?
Its value is 0.02 h.

What about the “t1/2 (rhKLKB1, h)” value (KLKB1 [5]) of the same compound?
Its value is 0.4 h.

For `CCCC[C@H](NC(=O)[C@@H]1CCCN1C(=O)CNC(=O)[C@H](CCCCN)NC(=O)[C@H](Cc1c[nH]cn1)NC(=O)[C@H](CO)NC(=O)[C@H](CC(C)C)N(C)C(=O)[C@H](CCCNC(=N)N)NC(=O)[C@@H]1CCCN1C(=O)[C@H](CCCNC(=N)N)NC(=O)[C@H](CCC(N)=O)NC(=O)[C@H](CCCNC(=N)N)NC(=O)[C@H](CCCNC(=N)N)NC(=O)[C@H](Cc1ccccc1)NC(=O)[C@@H](N)CCCCN)C(=O)NC(C)(C)C(=O)N[C@@H](Cc1ccc(Br)cc1)C(=O)O` [Peptide 11] (H-KFRRQRPR[NMeL]SHKGP[Nle][Aib][Phe(4-Br)]-OH; C-terminus assumed), which “receptor binding affinity (in words)” value ([2]; rat apelin receptor) is on record?
The value was “sub-nanomolar receptor affinities”.

And the “degradation by KLKB1 (in words)” value (KLKB1 [3]; KLKB1)?
The value was “degraded quickly”.

And the Km (KLKB1 [3])?
The Km was 245 ± 75 µM.

What about the “kcat” value (KLKB1 [3]) of the same compound?
The value was 16.5 ± 2.1 s⁻¹.

What about the “ability to rescue the heart from ischemic reperfusion injury” value (isolated rat hearts; peptide at start of reperfusion for 10 min at 1 pM) of the same compound?
The value was “equivalent ability to rescue the heart from ischemic reperfusion injury compared to native isoform 2”.

And the “max/min dP/dt, LVDP and RPP compared to native isoform 2” value (isolated rat hearts; reperfusion)?
Its value is “slight improvement over the native isoform”.
